# Laboratory results published in patent US20250032788A1, “COMPOSITIONS AND METHODS FOR TREATING WITH A COMBINATION OF ALTERNATING ELECTRIC FIELDS AND DNA-DEPENDENT PROTEIN KINASE INHIBITORS” (NOVOCURE GMBH, priority 2023, published 2025).
# “Also recorded” adds a separate entry of the source.
# Assays:
# Format in all cases: cell-based
# A549 cells [1] = experiment: Inhibitor titration, cell count by flow cytometer, A549; details: 72 hr, no TTFields
# Protocol: (§1) This work was began with the titration of nedisertib. For these experiments 15,000 of A549 or H1299 cells/dish were seeded in 12-well plate and incubated overnight to allow cell attachment. The cells were then treated with various concentrations of nedisertib for 72 hr. The remaining cells were counted by flow cytometer (Guava easyCyte HT) (FIG. 11). […] For these experiments 15,000 of A549 or H1299 cells/dish were seeded in 12-well plates and incubated overnight to allow cell attachment. […] The remaining cells were counted by flow cytometer (Guava easy Cyte HT).
# H1299 cells [2] = experiment: Inhibitor titration, cell count by flow cytometer, H1299; details: 72 hr, no TTFields
# Protocol: as §1
# A549 cells [3] = experiment: Concomitant TTFields and inhibitor: cell count, colony formation, annexin V/7AAD apoptosis, A549; details: for interaction of co-application of TTFields and inhibitor: summary statement
# Protocol: (§2) In these experiments 15,000 of A549 cells/dish were seeded in inovitro dishes and incubated overnight to allow cell attachment. The cells were then treated with TTFields (0.97V/cm RMS, 150 kHz, 72 h), alone or with the addition of different concentrations of nedisertib, Efficacy was measured by analyzing cell count by flow cytometer (Guava easy Cyte HT), colony formation, and apoptosis induction by annexin V/7AAD staining. The overall effect was calculated by multiplying cell count with colony formation.
# as §2, with “The cells were then treated with TTFields (0.97V/cm RMS, 150 kHz, 72 h), alone or with the addition of different concentrations of nedisertib,” left out
# H1299 cells [4] = experiment: Concomitant TTFields and inhibitor: cell count, colony formation, annexin V/7AAD apoptosis, H1299; details: TTFields 0.97 V/cm RMS, 150 kHz, 72 h
# Protocol: as §2, with “H1299” for “A549”, “(0.97 V/cm” for “(0.97V/cm”, “KHz,” for “kHz,”, “nedisertib.” for “nedisertib,”
# as §2, with “H1299” for “A549”, “The cells were then treated with TTFields (0.97V/cm RMS, 150 kHz, 72 h), alone or with the addition of different concentrations of nedisertib,” left out
# A549 cells [5] = experiment: Cell cycle distribution by flow cytometer, A549; details: for change in the sub G1 phase / cell cycle distribution, concomitant treatment with TTFields: 150 kHz; for cell cycle distribution, concomitant treatment with TTFields: different times
# Protocol: (§3) The mechanism of action of the concomitant treatment was investigated and cell cycle analysis was performed. In these experiments 15,000 of A549 cells/dish were seeded in inovitro dishes and incubated overnight to allow cell attachment. The cells were then treated with TTFields (0.97 V/cm RMS. 150 kHz) for different times, alone or with the addition of 6 μM of nedisertib (FIG. 14). Cell cycle distribution was performed for each treatment alone and for the concomitant treatments using the Cytek® Northern Lights™ flow cytometer.
# (§4) In these experiments, 15,000 of A549 cells/dish were seeded in inovitro dishes and incubated overnight to allow cell attachment. […] Cell cycle distribution was performed for each treatment alone and for the concomitant treatments using the Cytek® Northern Lights™ flow cytometer.
# H1299 cells [6] = experiment: Cell cycle distribution by flow cytometer, H1299; details: 150 kHz, different times
# Protocol: as §3, with “Similar results to the A549 cells were obtained in the H1299 cell line, where” for “The mechanism of action of”, “results in G1 arrest (FIG. 15).” for “was investigated and cell cycle analysis was performed.”, “H1299” for “A549”, “6.25” for “6”, “nedisertib.” for “nedisertib (FIG. 14).”
# as §4, with “Similar results were obtained in the H1299 cell line, where the concomitant treatment results in G1 arrest (FIG. 20). In” for “In”, “experiments” for “experiments,”, “H1299” for “A549”
# DNA-PK = target: T1, DNA-PK (Homo sapiens, UniProt P78527); experiment: Western blot of DNA-PK autophosphorylation (pS2056) after radiation in primary glioma stem-like cells; details: VX984 250 nM, radiation 5 Gy, CX18 edge 2, CX18 core 1, OX5 edge and OX5 core
# T1 construct: primary glioma stem-like cells (GSCs) treated with DNA-PKi or IR alone or in combination; endogenous in cells; host or cells: CX18 core 1 / edge 2 and OX5 core / edge primary glioma stem-like cells
# [7] = test system: CX18 edge 2, CX18 core 1, OX5 edge and OX5 core primary glioblastoma cells; experiment: Clonogenic survival assay with TTFields, VX984 and radiation in 3D Alvetex culture; details: VX984 250 nM, 1 hr pre-treatment, TTFields 200 kHz, 72 hr, radiation, n=3
# Protocol: Clonogenic survival assays of cells pre-treated with VX984 (250 nM, 1 hr) before TTFields incubation (200 kHz, 72 hr) in CX18 edge 2, CX18 core 1, OX5 edge and OX5 core cells. n=3, statistical significance denoted through ANOVA one-way analysis. Representative images of cell death post TTFields treatment in CX18 edge 2), CX18 core 2, OX5 edge and OX5 core cells.
# FIG. 6 is a table with a summary of the survival data of TTFields alongside VX984 and radiation. The average intratumoural survival fractions (INTRA); OX5 core vs edge and CX18 core vs edge and the average intertumoural survival fraction; OX5 INTRA vs CX18 INTRA are shown. Bliss indices are calculated to ascertain if cell death is synergistic or addictive using the survival fraction product of DMSO+TTF and Combo−TTF as a ratio against Combo+TTF. Ratios<1.1 are seen as additive cell death whereas>1.1 is synergistic.
# [8] = TTFields 0.97 V/cm RMS, 150 kHz, 72 h, different concentrations
# [9] = 0.11 μM CC-115, TTFields 0.97 V/cm RMS
# [10] = 6 μM nedisertib, TTFields 0.97 V/cm RMS
molecule,measurement,setting,value
CCN1C(=O)CNc2ncc(-c3ccc(-c4nc[nH]n4)nc3C)nc21 [CC-115],IC50 (remaining cells counted),A549 cells [1],much lower than that of nedisertib
same,IC50 (remaining cells counted),H1299 cells [2],much lower than that of nedisertib; also recorded: higher than that of A549
same,levels of apoptosis at the concentration used for cell cycle analysis,A549 cells [3]; 0.11 μM CC-115,low levels of apoptosis
same,overall effect (cell count multiplied by colony formation) of inhibitor with TTFields,A549 cells [3]; [8],synergistically enhanced; also recorded: enhance
same,interaction of co-application of TTFields and inhibitor,A549 cells [3],synergistic interaction
same,overall effect (cell count multiplied by colony formation) of inhibitor with TTFields,H1299 cells [4]; different concentrations,additive overall effect; also recorded: enhance
same,change in the sub G1 phase,A549 cells [5]; [9],don't see a significant change
same,"cell cycle distribution, concomitant treatment with TTFields",A549 cells [5]; [9],induced G1 arrest and a decreased number of s-phase cells; also recorded: promotes cell cycle arrest
same,"cell cycle distribution, concomitant treatment with TTFields","H1299 cells [6]; 0.3125 μM CC-115, TTFields 0.97 V/cm RMS",G1 arrest; also recorded: promotes cell cycle arrest
COc1ccc([C@@H](O)c2cc(-c3ncnc4cc(N5CCOCC5)ccc34)c(F)cc2Cl)nn1 [Nedisertib],IC50 (remaining cells counted),H1299 cells [2],higher than that of A549
same,levels of apoptosis at the concentration used for cell cycle analysis,A549 cells [3]; 6 μM nedisertib,low levels of apoptosis
same,apoptotic effect of the concomitant treatment (annexin V/7AAD),"A549 cells [3]; TTFields 0.97 V/cm RMS, 150 kHz, 72 h",only significant in the higher doses
same,cytotoxic effect (cell count) of inhibitor with TTFields,A549 cells [3]; [8],synergistically enhanced; also recorded: enhance
same,overall effect (cell count multiplied by colony formation) of inhibitor with TTFields,A549 cells [3]; [8],synergistically enhanced; also recorded: enhance
same,interaction of co-application of TTFields and inhibitor,A549 cells [3],synergistic interaction
same,apoptotic effect of the concomitant treatment (annexin V/7AAD),H1299 cells [4],only significant in the higher doses
same,interaction of concomitant treatment of TTFields and inhibitor,H1299 cells [4],additive interaction
same,cytotoxic effect (cell count) of inhibitor with TTFields,H1299 cells [4]; different concentrations,enhance
same,overall effect (cell count multiplied by colony formation) of inhibitor with TTFields,H1299 cells [4]; different concentrations,enhance
same,interaction of concomitant treatment of TTFields and inhibitor,H1299 cells [4]; listed as nedisertib,additive effect
same,change in the sub G1 phase,A549 cells [5]; [10],don't see a significant change
same,"cell cycle distribution, concomitant treatment with TTFields",A549 cells [5]; [10],highest level of arrest; also recorded: promotes cell cycle arrest
same,"cell cycle distribution, inhibitor alone","A549 cells [5]; 6 μM nedisertib, at most time points",induce G1 arrest and a decreased number of s-phase cells
same,"cell cycle distribution, concomitant treatment with TTFields","H1299 cells [6]; 6.25 μM nedisertib, TTFields 0.97 V/cm RMS",G1 arrest; also recorded: promotes cell cycle arrest
VX984,pDNAPK (pS2056) signal in response to radiation,DNA-PK,depletion of pDNAPK (pS2056) signal
same,glioblastoma cell death (clonogenic survival),[7],enhances glioblastoma cell death by radiosensitisation
